# Experimental data taken from a melting point compilation (Tetko et al.; mined from patent text by program, amines drawn as free bases though some values may be those of a salt).
row,Structure (SMILES),melting point
1,CC(C)c1ccc(C(=O)N2CCCCC2)c(NS(=O)(=O)c2cccc3nsnc23)c1,125 to 127 °C
2,Cc1ccc(C(O)CN2CCNC2=S)cc1 (stereo not drawn),123 °C
3,Cc1cccc(NC(=O)NC2N=C(C3CCCCC3)c3cccc(C)c3N(CC(=O)C3CCCCC3)C2=O)c1 (stereo not drawn),159 to 170 °C
4,COC(=O)[C@@H](OS(=O)(=O)c1ccc(C)cc1)[C@H](O)c1ccc(F)cc1,122 to 124 °C
5,[O-][N+](C1C2CC(c3ccccc32)C1Cl)=[N+]([O-])C1C2CC(c3ccccc32)C1Cl (stereo not drawn),187 to 188 °C
6,O=C(O)Cc1cc2c(c(C(=O)O)c1)NC(C(F)(F)F)CC2 (stereo not drawn),195 to 196 °C
7,CC(=O)OCCc1cc2c(s1)SCCc1cc(=O)n(-c3ccc(Cl)cc3)nc1-2,115 to 117 °C
8,COc1ccc(C(OC(C)=O)C(COC(C)=O)[N+](=O)[O-])cc1OC (stereo not drawn),85 to 88 °C
9,CCOC(=O)C(C)Oc1ccc(Oc2nnc3cc(Br)ccc3n2)cc1 (stereo not drawn),104 °C
10,Oc1ccc2c(ccn2Nc2ccncc2F)c1,70 to 73 °C
11,O=CC=CC(=C(c1ccc(F)cc1)c1ccc(F)cc1)n1cnnn1,152 to 154 °C
12,Cc1n[nH]c(=O)n1-c1ccc([N+](=O)[O-])cc1,226 °C
13,COc1ccccc1[C@@]1(O)[C@H](O)CC(c2ccccc2)(c2ccccc2)[C@@H]2CN(C(=O)Cc3ccc4ccccc4c3)C[C@@H]21 (racemic),188 to 190 °C
14,CC(=O)Nc1ccc(-c2cc(C(=O)c3ccc(S(C)(=O)=O)cc3)sc2N2CCOCC2)cc1,177 °C
15,CCC(CC)n1nnc2c(Oc3c(C)cc(C)cc3C)nc(C)nc21,92 °C
16,COC(=O)COc1cccc2c(CCBr)c(C)oc12,146 to 148 °C
17,CC(C)n1c(=O)n(C)c(=O)c2cn(C3Cc4ccccc4C3)cc21,158 to 160 °C
18,CC(=O)c1c(C)oc(C)c1C(C)=O,75 to 77 °C
19,CNc1nc(Nc2ccc(S(C)=O)cc2)ncc1[N+](=O)[O-] (stereo not drawn),288 °C
20,CN1CCN(C(=O)Cn2c(-c3cc(Cl)ccn3)nc3cccnc32)CC1,174 to 175 °C
21,Cc1nc2c(N)nc3cc(OCCNC(=O)C(C)C)ccc3c2n1CC(C)C,205 to 206 °C
22,Cc1ccc(N2C(=O)N(CC(=O)Nc3c(C(C)C)cccc3C(C)C)C(=O)C23CCN(C(=O)OC(C)(C)C)CC3)cc1,227 to 229 °C
23,Cc1ccc(N(C=C(C#N)C#N)N=C(C#N)C#N)cc1,168 to 169 °C
24,Cc1cc(C(C)C)c(S(C)(=O)=O)cc1C(=O)N=C(N)N,220 to 223 °C

row,Structure (SMILES),melting point
1,O=C1c2ccccc2C(=O)N1Cc1noc(-c2ncn3c2[C@@H]2CCN2C(=O)c2cc(F)ccc2-3)n1,287 to 288 °C
2,C[C@@H]1CN(C(=O)[C@@](C)(O)C(F)(F)F)[C@@H](C)CN1S(=O)(=O)c1ccc(C#N)cc1,186 to 187 °C
3,COc1ccccc1-c1c(C2CCN(C)CC2)[nH]c(=O)c2ccccc12,153 to 155 °C
4,Cc1nc(C)c(I)nc1C,59 to 63 °C
5,CC(=O)NNCC1CC2c3cccc4c3c(cn4C)CC2N(C)C1 (stereo not drawn),190 to 192 °C
6,COC(=O)CCc1ccc(NC(=O)C(Cn2ccnc2)NS(=O)(=O)c2ccc(Cl)cc2)cc1 (racemic),79 to 82 °C
7,C(#Cc1cccc(-c2cnccn2)c1)c1ccncc1,94 to 95 °C
8,CC(=O)CS(=O)(=O)C(c1ccc(Cl)cc1)c1ccc(Cl)cc1,114 to 115 °C
9,Cc1ccccc1NC(=N)NC1CCCCC1,145 to 146 °C
10,N#Cc1c(NC(=O)C2CCCCC2)sc(-c2ccccc2)c1Br,167 to 168 °C
11,CS(=O)(=O)c1ccc(/C(=C(\CCO)C(=O)O)c2ccc(Cl)cc2)cc1,144 to 145 °C
12,CC(=O)OC1CSC(Oc2cncc(-c3ccc(C)c(C)c3)c2)C(OC(C)=O)C1OC(C)=O (stereo not drawn),131 °C
13,CON(C)S(=O)(=O)c1ccccc1S(=O)(=O)NC(=O)n1nc(OCC(F)(F)F)n(C)c1=O,183 °C
14,Cc1c(-c2ccccc2)n[nH]c1OCCN1CCOCC1,100 °C
15,COC(=O)NN(C(=O)Cl)c1ccccc1OCCSC,55 to 57 °C
16,CN1CCC(c2c[nH]c3ccc(OS(=O)(=O)c4ccccc4F)cc23)CC1,180 to 182 °C
17,O=C(Nc1n[nH]c(=S)s1)NC(Cc1ccccc1)C(=O)NCc1ccccn1 (stereo not drawn),159 to 161 °C
18,O=C(O)c1cn(C2CC2)c2c(F)c(N3CC(C(=O)O)C3)c(F)cc2c1=O,251 to 255 °C
19,O=C(Nc1ccccc1OCC1CO1)c1cccc2[nH]ccc12 (stereo not drawn),122 °C
20,COc1ccc(C(=O)CC2CCCN(C)C2)cc1 (stereo not drawn),89 to 92 °C
21,CC1CCC(C(C)C)C(OC(=O)[C@@H](c2ccc(OCc3ccc4ccccc4n3)cc2)C2CCCCCC2)C1 (stereo partly drawn),127 °C
22,COc1cc(-c2csc(N)n2)cc([N+](=O)[O-])c1O,248 to 250 °C
23,COCc1c(S(C)(=O)=O)ccc(C(=O)O)c1C,129 to 131 °C

# The remaining lines, values ahead:
row,melting point,Structure (SMILES)
1,165 to 180 °C,COc1ccc(N2C(=O)N(C(C)CO)c3nc(Nc4ccccc4)ncc3C2C)cc1 (stereo not drawn)
2,217 to 218 °C,Cc1nc(N2CCCC(Cc3ccc(C(F)(F)F)cc3)C2=O)sc1C(=O)NCc1ccccc1 (stereo not drawn)
3,140 °C,CCCCC(=O)C(Cc1ccc(C(=O)O)cc1)c1ccccc1 (stereo not drawn)
4,150 to 153 °C,O=C(O)c1ccccc1Nc1ccc(CCCc2ccc([N+](=O)[O-])cc2)cc1
5,83 to 85 °C,COc1ccc(OC)c(CCc2ccc3ncn(C)c(=O)c3c2)c1
6,261 to 263 °C,O=C(Nc1cn2cc(-n3ccnc3)ccc2n1)c1ccc(-c2ccoc2)cc1
7,285 to 286 °C,Cn1nc(CCc2ccncc2)c2c(=O)n(-c3ccccc3)c3ncccc3c21
8,134 to 137 °C,CN1CCCC1=C1C(=O)N(c2ccccc2)c2cc(Cl)ccc21
9,132 to 134 °C,COC(=O)Cc1c(C)n(Cc2ccc(Cl)cc2)c2ccc(OCc3ccc4ccccc4n3)cc12
10,161 to 163 °C,COc1ccc(CC(=O)c2c(O)c3cccnc3n(-c3ccccc3)c2=O)cc1OC
11,188 to 190 °C,Nc1ccc(S(=O)(=O)c2cc(-c3ccccc3Cl)nc(N3CCCC3)c2)cc1
12,158 to 159 °C,Cc1oc(-c2ccco2)nc1COc1ccc(COc2nn(Cc3ccccc3)cc2C=O)cc1Cl
13,148 to 149 °C,CCOC(=O)/C=C/c1cn(Cc2ccc(OCc3nc(-c4ccccc4)oc3C)cc2)nc1OCc1ccc(OCc2nc(-c3ccccc3)oc2C)cc1
14,104 to 106 °C,O=C(Nc1ccc(Oc2ccnc(N3CCOCC3)n2)c2ccccc12)c1cc(F)cc(N2CCOCC2)c1
15,140 to 141 °C,c1ccc(CCCC2CCN(Cc3nc4ccccc4[nH]3)CC2)cc1
16,115 to 116 °C,CCn1nc(-c2ccccc2)c(C(=O)OCC(=O)OCc2ccccc2)c(Nc2cnccc2C)c1=O
17,248 to 250 °C,NC(=O)CCn1c(-c2ccc(Cl)cc2)nc2cccnc21
18,157 to 160 °C,CCCOc1ccc(S(=O)(=O)NCc2ccncc2)cc1-c1nc2cc(N)c([N+](=O)[O-])cc2c(=O)[nH]1
19,96 to 98 °C,O=C(OCC1CCc2c(O)cccc2C1)N(c1ccccc1)c1ccccc1 (stereo not drawn)
20,196 to 197 °C,COc1ccccc1C(=O)Nc1nc2ccccc2s1
21,194 to 195 °C,Cn1nc(C(=O)NCc2ccc(Cl)cc2)c(=O)c2cc(I)ccc21
